Assay type in all cases: cell-based
In assay [1] the test system is RSV A2. The experiment in a line: RSV NHBE EC50 (RSV A2 antiviral assay in normal human bronchial epithelial cells). The note with it: NHBE cells, RSV A2, 4 days, read-out: RSV NHBE EC50.
In assay [2] the test system is DENV2 replicon. The experiment in a line: DENV-2 Huh-7 Rep EC50 (replicon luminescence). As to conditions: Dengue virus, DENV2, Huh-7, 48 h, read-out: DENV-2 Huh-7 Rep EC50. The gist of the method: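 Huh-7 cells carrying a DENV2 replicon, 5,000 cells/well, were incubated with dosed compounds for 48 h at 37° C. EnduRen live-cell substrate was added 1.5 h before luminescence reading. EC50 came from dose-response against DMSO-only wells.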
(In general: A replicon is a self-replicating genome or part of one, used to study replication in cells.)

Assay [3] deals with RSV strain A2. The experiment in a line: RSV HEp-2 EC50 (infectious cytopathic cell protection assay). The note with it: HEp-2 cells, RSV A2, 4 days, read-out: RSV HEp-2 EC50. In outline:
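HEp-2 cells mixed with titered RSV A2 at 50,000 cells/ml were added to plates holding 3-fold serial compound dilutions in DMSO, then incubated 4 days at 37° C. Cytoprotection was read as cell viability by CellTiter-Glo luminescence and converted to percent inhibition against 0% and 100% inhibition controls.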
A general note: Damage to the host cells serves as the signal in cytopathic effect assays.

Assay [4] has as its system HRV16. Description: HRV16 HELA EC50 (cytopathic effect in H1-HeLa cells). The gist of the method:
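H1-HeLa cells seeded one day before, given 3-fold serial compound dilutions in triplicate just prior to infection with pre-titrated virus. Incubated 96 h at 33 °C/5% CO2; protection from cytopathic effect read as viability by CellTiter-Glo luminescence, normalised to infected untreated (0%) and uninfected (100%) controls.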

[5] abbreviates: human respiratory syncytial virus, NHBE, 96 h.
Where [6] appears, read: human respiratory syncytial virus, HEp-2, 96 h.
Setting [7] is: 96 h, H1-HeLa cells, 33° C., read-out: HRV16 HELA EC50.
The mark [8] stands for this setting: human respiratory syncytial virus, 96 h.
The mark [9] stands for this setting: H1-HeLa cells, 96 h, 33° C.; read-out: HRV16 HELA EC50.

Results on 17 compounds are retold here after patent US20230295201A1 (Gilead Sciences, Inc., priority 2020, published 2023).

Structures are written as SMILES. Like-named read-outs stand apart in the source and are kept apart here.

In general, EC50 refers to the midpoint of the concentration-response curve. In the case of `N#C[C@]1(COP(=O)(NCCOC(=O)C2CCCCC2)Oc2ccccc2)O[C@@H](c2ccc3c(N)ncnn23)[C@H](O)[C@@H]1O` (stereo partly drawn) [Example 166, 2-(((((2R,3S,4R,5S)-5-(4-aminopyrrolo[2,1-f][1,2,4]triazin-7-yl)-2-cyano-3,4-dihydroxytetrahydrofuran-2-yl)methoxy)(phenoxy)phosphoryl)amino)ethyl cyclohexane carboxylate], the EC50 in assay [1] (setting [5]) stood at 0.624 µM; in assay [2] (Huh-7 replicon cells, 48 hours) it was 22.1 µM; in assay [3] (setting [6]) it was 0.083 µM; in assay [4] (setting [7]), 0.336 µM.
The matching figures for `CC(C)OC(=O)C[C@H](C)NP(=O)(OC[C@@]1(C#N)O[C@@H](c2ccc3c(N)ncnn23)[C@H](O)[C@@H]1O)Oc1ccccc1` (stereo partly drawn) [Example 99, (3S)-isopropyl 3-(((((2R,3S,4R,5S)-5-(4-aminopyrrolo[2,1-f][1,2,4]triazin-7-yl)-2-cyano-3,4-dihydroxytetrahydrofuran-2-yl)methoxy)(phenoxy)phosphoryl)amino)butanoate]: greater than 5 µM, greater than 50 µM, greater than 50 µM and greater than 50 µM.
On to `CC[C@H](NP(=O)(OC[C@@]1(C#N)O[C@@H](c2ccc3c(N)ncnn23)[C@H](O)[C@@H]1O)Oc1ccccc1)C(=O)OC1CCCC1` (stereo partly drawn) [Example 109, (2S)-cyclopentyl 2-(((((2R,3S,4R,5S)-5-(4-aminopyrrolo[2,1-f][1,2,4]triazin-7-yl)-2-cyano-3,4-dihydroxytetrahydrofuran-2-yl)methoxy)(phenoxy)phosphoryl)amino)butanoate], for which the EC50 in assay [1] (setting [5]) was 0.452 µM; in assay [2] (Huh-7 replicon cells, 48 hours) it was greater than 50 µM; in assay [3] (setting [6]) it was 1.07 µM; in assay [4] (setting [7]), 2.49 µM.
In the case of `CC(C)OC(=O)[C@@H](C)NP(=O)(OC[C@@]1(C#N)O[C@@H](c2ccc3c(N)ncnn23)[C@H](O)[C@@H]1O)Oc1ccccc1` (stereo partly drawn) [Example 86, (2R)-isopropyl 2-(((((2R,3S,4R,5S)-5-(4-aminopyrrolo[2,1-f][1,2,4]triazin-7-yl)-2-cyano-3,4-dihydroxytetrahydrofuran-2-yl)methoxy)(phenoxy)phosphoryl)amino)propanoate], the EC50 in assay [1] (setting [5]) is greater than 5 µM; in assay [2] (Huh-7 replicon cells, 48 hours), greater than 50 µM; in assay [3] (setting [6]), 22.6 µM; in assay [4] (setting [7]), greater than 50 µM.
Regarding `C[C@H](NP(=O)(OC[C@@]1(C#N)O[C@@H](c2ccc3c(N)ncnn23)[C@H](O)[C@@H]1O)Oc1ccccc1)C(=O)O[C@H]1CC[C@@H](C(F)(F)F)CC1` (single isomer, unassigned) [Example 180], the EC50 in assay [1] came out at 0.833 µM; in assay [2] (Huh-7 replicon cells, 48 hours) it was 6.62 µM; in assay [3] it was 0.142 µM; in assay [4] (setting [7]), 0.851 µM.
Turning to `COC(=O)[C@H](C)NP(=O)(N[C@@H](C)C(=O)OC)OC[C@@]1(C#N)O[C@@H](c2ccc3c(N)ncnn23)[C@H](O)[C@@H]1O` [Example 38], the EC50 is 3.98 µM in assay [1] (setting [8]), greater than 50 µM in assay [2], 3.51 µM in assay [3] (setting [8]) and 20.9 µM in assay [4] (setting [9]).
On to `CCCCOC(=O)[C@H](C)NP(=O)(N[C@@H](C)C(=O)OCCCC)OC[C@@]1(C#N)O[C@@H](c2ccc3c(N)ncnn23)[C@H](O)[C@@H]1O` [Example 218], for which the EC50 is 0.28 µM in assay [1] (setting [8]), greater than 50 µM in assay [2], 1.16 µM in assay [3] (setting [8]) and 11.3 µM in assay [4] (setting [9]).
As for `C[C@H](NP(=O)(OC[C@@]1(C#N)O[C@@H](c2ccc3c(N)ncnn23)[C@H](O)[C@@H]1O)Oc1ccccc1)C(=O)O[C@H]1CC[C@H](c2ccccc2)CC1` (stereo partly drawn) [Example 186, trans-4-phenylcyclohexyl ((((2R,3S,4R,5S)-5-(4-aminopyrrolo[2,1-f][1,2,4]triazin-7-yl)-2-cyano-3,4-dihydroxytetrahydrofuran-2-yl)methoxy)(phenoxy)phosphoryl)-L-alaninate], the EC50 amounted to 0.07 µM in assay [1] (setting [5]); 60.3 µM in assay [2] (Huh-7 replicon cells, 48 hours); 2.77 µM in assay [3] (setting [6]); 4.75 µM in assay [4] (setting [7]).
On the same counts, the results for `C[C@H](NP(=O)(OC[C@@]1(C#N)O[C@@H](c2ccc3c(N)ncnn23)[C@H](O)[C@@H]1O)Oc1ccccc1)C(=O)O[C@H]1CC[C@H](C)CC1` (mixture of isomers) [Example 142, (2S)-(1r,4S)-4-methylcyclohexyl 2-(((((2R,3S,4R,5S)-5-(4-aminopyrrolo[2,1-f][1,2,4]triazin-7-yl)-2-cyano-3,4-dihydroxytetrahydrofuran-2-yl)methoxy)(phenoxy)phosphoryl)amino)propanoate] are 0.061 µM, 12.2 µM, 0.251 µM and 0.164 µM.
For `CC(C)OC(=O)[C@H](C)NP(=O)(OCCS(C)(=O)=O)OC[C@@]1(C#N)O[C@@H](c2ccc3c(N)ncnn23)[C@H](O)[C@@H]1O` (stereo partly drawn) [Example 42, isopropyl ((((2R,3S,4R,5S)-5-(4-aminopyrrolo[2,1-f][1,2,4]triazin-7-yl)-2-cyano-3,4-dihydroxytetrahydrofuran-2-yl)methoxy)(2-(methylsulfonyl)ethoxy)phosphoryl)-L-alaninate], the EC50 in assay [1] (setting [8]) is no less than 5 µM; in assay [2], 39.2 µM; in assay [3] (setting [8]) it was 25.4 µM; in assay [4] (setting [9]), greater than 50 µM.
On to `CCC(CC)COC(=O)[C@H](C)N[P@@](=O)(OC[C@@]1(C#N)O[C@@H](c2ccc3c(N)ncnn23)[C@H](O)[C@@H]1O)Oc1ccccc1` (single isomer, unassigned) [Example 207], for which the concentration giving a half-maximal response (EC50) in assay [1] (setting [5]) worked out at 0.091 µM; in assay [2] (Huh-7 replicon cells, 48 hours), 4.84 µM; in assay [3] (setting [6]) it was 0.124 µM; in assay [4] (setting [7]), 0.183 µM.
Regarding `C[C@H](N)C(=O)OCCNP(=O)(OC[C@@]1(C#N)O[C@@H](c2ccc3c(N)ncnn23)[C@H](O)[C@@H]1O)Oc1ccccc1` (stereo partly drawn) [Example 133, 2-(((((2R,3S,4R,5S)-5-(4-aminopyrrolo[2,1-f][1,2,4]triazin-7-yl)-2-cyano-3,4-dihydroxytetrahydrofuran-2-yl)methoxy)(phenoxy)phosphoryl)amino)ethyl L-alaninate], the EC50 in assay [1] (setting [5]) was greater than 5 µM; in assay [2] (Huh-7 replicon cells, 48 hours), greater than 50 µM; in assay [3] (setting [6]), 4.72 µM; in assay [4] (setting [7]), 16.5 µM.
For `CC(C)OC(=O)[C@H](Cc1ccccc1)NP(=O)(OC[C@@]1(C#N)O[C@@H](c2ccc3c(N)ncnn23)[C@H](O)[C@@H]1O)Oc1ccccc1` (stereo partly drawn) [Example 80, (2S)-isopropyl 2-(((((2R,3S,4R,5S)-5-(4-aminopyrrolo[2,1-f][1,2,4]triazin-7-yl)-2-cyano-3,4-dihydroxytetrahydrofuran-2-yl)methoxy)(phenoxy)phosphoryl)amino)-3-phenylpropanoate], the EC50 in assay [1] (setting [5]) was 4.7 µM; in assay [2] (Huh-7 replicon cells, 48 hours), greater than 50 µM; in assay [3] (setting [6]) it was 3.83 µM; in assay [4] (setting [7]) it was 8.96 µM.
Consider `C[C@H](NP(=O)(OC[C@@]1(C#N)O[C@@H](c2ccc3c(N)ncnn23)[C@H](O)[C@@H]1O)Oc1ccccc1)C(=O)OC1CCN(C)CC1` (some centres unmarked) [Example 150], for which the EC50 in assay [1] (human respiratory syncytial virus, NHBE, in Homo sapiens, 96 h) is greater than 5 µM; in assay [2] (Huh-7 replicon cells, 48 hours), greater than 100 µM; in assay [3] (setting [6]), 4.16 µM; in assay [4] (setting [7]), 49.9 µM.
As for `COC(=O)[C@H](C)NP(=O)(OC[C@@]1(C#N)O[C@@H](c2ccc3c(N)ncnn23)[C@H](O)[C@@H]1O)Oc1ccccc1` (stereo partly drawn) [Example 39, methyl ((((2R,3S,4R,5S)-5-(4-aminopyrrolo[2,1-f][1,2,4]triazin-7-yl)-2-cyano-3,4-dihydroxytetrahydrofuran-2-yl)methoxy)(phenoxy)phosphoryl)-L-alaninate], the EC50 in assay [1] (setting [5]) is 0.569 µM; in assay [2] (Huh-7 replicon cells, 48 hours), greater than 50 µM; in assay [3] (setting [6]), 0.166 µM; in assay [4] (setting [7]) it was 1.08 µM.
For `N#C[C@@]12COP(=O)(OC3CCCC3)O[C@H]1[C@@H](O)[C@H](c1ccc3c(N)ncnn13)O2` (stereo partly drawn) [Example 161, (4aR,6S,7S,7aS)-6-(4-aminopyrrolo[2,1-f][1,2,4]triazin-7-yl)-2-(cyclopentyloxy)-7-hydroxydihydro-4H-furo[3,2-d][1,3,2]dioxaphosphinine-4a(6H)-carbonitrile 2-oxide], the EC50 in assay [1] (setting [8]) was 1.49 µM; in assay [2], greater than 50 µM; in assay [3] (setting [8]), 6.48 µM; in assay [4] (setting [9]), 13.8 µM.
Regarding `CCCCCOC(=O)C[C@H](NP(=O)(OC[C@@]1(C#N)O[C@@H](c2ccc3c(N)ncnn23)[C@H](O)[C@@H]1O)Oc1ccccc1)C(=O)OCCCCC` (stereo partly drawn) [Example 215, Dipentyl ((((2R,3S,4R,5S)-5-(4-aminopyrrolo[2,1-f][1,2,4]triazin-7-yl)-2-cyano-3,4-dihydroxytetrahydrofuran-2-yl)methoxy)(phenoxy)phosphoryl)-L-aspartate], the EC50 is greater than 3 µM in assay [1] (setting [5]); 44.3 µM in assay [2] (Huh-7 replicon cells, 48 hours); 1.1 µM in assay [3] (setting [6]); 3.39 µM in assay [4] (setting [7]).
